Experiments:
[1] = system: mitochondrial permeability transition pore (mPTP); experiment: mPTP-opening inhibitory activity test (calcium retention capacity, CRC) in mitochondria isolated from mouse brain; type: biochemical; conditions: for mPTP-Opening inhibitory activity at 1.0 μM compound concentration CRC/CRC (DMSO): mitochondria from C57B6J mouse brain, ratio of calcium required for mPTP-opening with compound vs DMSO control
Description: In this test, inhibitory effects of mPTP in mitochondria isolated from the brain were evaluated.
The mPTP-opening inhibitory activity and efficacy of test compounds are determined by evaluating inhibitory potency thereof against opening of mPTP formed of inner and outer mitochondrial membranes, by in-vitro assay described later.
The animal was humanely euthanized by cervical dislocation, and the brain was excised out. The brain excised out was put in an isolation buffer (280 mM sucrose, 10 mM 3-morpholinopropanesulfonic acid (MOPS), 1 mM ethylenediamine tetraacetic acid dipotassium salt (EDTA-2K), pH 7.2) cooled in ice. The brain was rinsed with the buffer cooled in ice and cut by scissors in the buffer put in a beaker placed on ice. The cut pieces were transferred to a Dounce glass homogenizer. The buffer was exchanged with an isolation buffer containing 12% Percoll, and the cut pieces were homogenized. The cut pieces were homogenized four times by use of a loose pestle and 8 times by use of a tight pestle while vertically rotating. The homogenate was gently overlaid on the layer formed of two portions different in density of Percoll (26%, 40%) in 50 ml-centrifuge tubes, which were then spun by a centrifuge (HITACHI CR22N, rotor R20A2) maintained at 4° C. at 30700×g for 5 minutes. The intermediate layer between the 26% layer and the 40% layer was carefully sucked by use of a 23 G needle, added in an isolation buffer (24 ml) previously cooled in ice, and spun by a centrifuge at 16700×g to allow mitochondria to precipitate as a pellet. The supernatant was gently discarded and the mitochondria was suspended. The amount of the mitochondrial suspension was measured and an aliquot of 20 μl was taken for determining protein concentration. To the mitochondrial suspension, 10 mg/ml BSA ([…]) was added and further an isolation buffer was added up to a volume of 1.2 ml (final concentration 1 mg/mL). The suspension was transferred to 2.0 ml tubes and then centrifuged. The supernatant was discarded and mitochondrial pellets were obtained and stored in ice. The protein amount of mitochondria was measured in accordance with the Bradford method.
To mitochondrial pellets isolated, a measurement buffer (210 mM sucrose, 20 mM potassium chloride, 3 mM glycylglycine and 1 mM potassium dihydrogen phosphate) containing a fluorescent calcium indicator, calcium green-5N (200 nM), was added to as to obtain a concentration of 150 μg/ml. In this manner, a mitochondrial suspension was prepared. Calcium green, which binds to calcium and emits fluorescence, is used as a probe for quantification. When calcium green is added to a mitochondrial suspension, the presence of calcium in the external fluid thereof can be detected. The mitochondrial suspension prepared by suspending mitochondria with the measurement buffer containing 400 nM calcium green was added in wells of a 96 well plate. To predetermined wells, a measurement buffer containing 40 mM glutamic acid, 4 mM malic acid and a double-concentration of test compound was added to prepare a mitochondrial suspension of 100 μl/well (final concentration: 20 mM glutamic acid, 2 mM malic acid). To the mitochondrial suspension in the wells of the 96 well plate, calcium was continuously added dropwise (10 μl of 117 μM CaCl2) was added in a rate of 100 μl/well, final concentration 11.7 μM), and the fluorescence value reflecting the amount of extramitochondrial calcium was determined ([…]). The measurement was carried out by a functional drug screening system, FDSS3000 (Hamamatsu Photonics K. K.). Incubation at 30° C. and shaking of the well plate were carried out by devices equipped in the system. Calcium (CaCl2)) was added at intervals of one minute in accordance with the program of FDSS3000 software.

[2] = system: PC12 cells; experiment: Cell death inhibitory activity test: glutamic acid-induced cell death of PC12 cells (MTS assay); type: cell-based, rat; conditions: test compound 1, 3, 10 or 30 μM, added 24 h before glutamic acid; cell viability by MTS 48 h later
Description: Simultaneously when mitochondria take up calcium, the membrane potential dissipates and mPTP opens. Physiologically, hydrogen peroxide generates in the mitochondrial respiratory chain with opening of mPTP and may further produce a damage to not only mitochondria but also cells. […] Oxidative stress ascribed to hydrogen peroxide may cause cell damage downstream of Ca uptake. In the test, the relationship between mPTP-opening inhibitory effect on cells and cell death was studied by using rat adrenal pheochromocytoma-derived PC12 cells.
The PC12 cells used in the test are derived from rat adrenal pheochromocytoma but are differentiated into sympathetic neurons by a nerve growth factor, and known to cause cell death in a glutamic acid concentration dependent manner (Pereira C F, Oliveira, R, Neuroscience Research, vol. 37(3), p. 227-236, 2000, Oxidative glutamate toxicity involves mitochondrial dysfunction and perturbation of intracellular Ca^2+ homeostasis).
A growth medium (composition: Dulbecco modified MEM culture medium (Gibco 11885-084) containing 100 units of penicillin, 100 μg/mL streptomycin (Gibco 15-140-122), 2.5% inactivated fetal bovine serum (Gibco 10437-028) and 2.5% inactivated horse serum (Gibco 16050-130)) were prepared. PC12 cells were cultured in a culture dish (diameter: 100 mm, Corning 353003) containing 10 ml of the growth medium. PC12 cells cryopreserved were thawed, cultured in the growth medium for at least one week and used in the test. PC12 cells were removed with 0.25% trypsin-1 mM EDTA and subcultured. The following experiments were all carried out at 37° C. by a CO2 incubator in an atmosphere containing 5% CO2. […]
After addition of MTS for CellTiter 96 ® AQueous One Solution Cell Proliferation Assay (Promega G3580)), the microplate was placed in a CO2 incubator and incubation was carried out for 4 hours. Absorbance of individual wells at a wavelength of 490 nm was measured by a spectrophotometer (SpectraMax i3 manufactured by Molecular Devices) with 700 nm used as a reference wavelength. A cell viability was calculated in accordance with the following expression (1) based on the absorbance obtained. Note that, to reduce background non-specific absorption due to excessive cell residue, culture medium and others, the obtained absorbance data were corrected based on the absorbance at a reference wavelength of 700 nm. […] Cell viability (%)=[(Abs−Abm)/(Abc−Abm)]×100 Expression (1) • Abs: Absorbance of sample (well containing cells, glutamic acid-added medium and MTS solution) • Abc: Absorbance of negative control (well containing cells, control medium and MTS solution) • Abm: Absorbance of blank (well containing control medium and MTS solution) (Suppression of Cell Death in the Presence of Test Compound) […]

[3] = system: local cerebral ischemia mouse model (pMCA-O); experiment: Suppression test for cell death caused by cerebral ischemia: local cerebral ischemia mouse model by permanent middle cerebral artery occlusion (pMCA-O); conditions: mice, 100 mg/kg intraperitoneal
Description: In the test, to evaluate the action of test compounds to protect cells from cell death in vivo, a local cerebral ischemia mouse model was prepared by permanent middle cerebral artery occlusion (pMCA-O) and actions of test compounds to protect the cells at a brain injury site one day after occlusion were examined. Note that, for preparing a permanent middle cerebral artery occlusion model, C57BL/6JJmsSlc was used.
As the solvent, dimethyl sulfoxide (DMSO: FUJIFILM Wako Pure Chemical Corporation), polyethylene glycol (PEG400: FUJIFILM Wako Pure Chemical Corporation) and phosphate buffered saline (PBS: FUJIFILM Wako Pure Chemical Corporation) were used. The final concentrations of DMSO, PEG400 and PBS were set to be 15%, 50% and 35%, respectively. […]
One day after cerebral ischemia, the head of each of the mice was removed under anesthesia with 2% isoflurane and the whole brain was carefully excised out. […] These brain sections were stained in physiological saline containing 10 mL of 2% 2,3,5-triphenyl tetrazolium chloride (TTC) (manufactured by Hayashi Pure Chemical Ind., Ltd.) for 30 minutes (Bederson, J B et al., Stroke, 1986, vol. 17, p. 1304-1308, Evaluation of 2,3,5-triphenyltetrazolium chloride as a stain for detection and quantification of experiment a cerebral Infarction in rats). […]
The size of a brain injury site was determined as follows.

Row | Compound | mPTP-Opening inhibitory activity at 1.0 μM compound concentration CRC/CRC (DMSO) [1] | protection of PC12 cells from cell death induced by glutamic acid (FIG. 4) [2] | also measured
1 | CN(C)c1ccc(O)c2c1C[C@@H](CC1=C(O)C(=O)C(C(N)=O)=C(O)C1=O)CC2=O [Compound I-3, (S)-4-((8-(dimethylamino)-5-hydroxy-4-oxo-1,2,3,4-tetrahydronaphthalen-2-yl)methyl)-2,5-dihydroxy-3,6-dioxocyclohexa-1,4-dienecarboxamide] | 1.22 |  | 
2 | C[C@@H]1c2cccc(O)c2C(=O)C[C@@H]1CC1=C(O)C(=O)C(C(N)=O)=C(O)C1=O [Compound Ia-3, 2,5-dihydroxy-4-(((1S,2S)-5-hydroxy-1-methyl-4-oxo-1,2,3,4-tetrahydronaphthalen-2-yl)methyl)-3,6-dioxocyclohexa-1,4-dienecarboxamide] | 3.00 |  | 
3 | CC(C)(C)C(=O)Oc1cccc2c1C(=O)[C@@H]1C(=O)O[C@@]2(C)[C@H]1Cc1c(OC(=O)C(C)(C)C)c(OC(=O)C(C)(C)C)c(C#N)c(OC(=O)C(C)(C)C)c1OC(=O)C(C)(C)C [Compound I-5] |  | stronger protective actions | 
4 | C[C@@]12OC(=O)[C@@H](C(=O)c3c(O)ccc(Cl)c31)[C@@H]2CC1=C(O)C(=O)C(C(N)=O)=C(O)C1=O [Compound Ia-1, 4-(((1S,4R,10S)-9-chloro-6-hydroxy-1-methyl-3,5-dioxo-1,3,4,5-tetrahydro-1,4-methanobenzo[c]oxepin-10-yl)methyl)-2,5-dihydro-3,6-dioxohexa-1,4-dienecarboxamide] | 1.66 |  | 
5 | CC(=O)Oc1cccc2c1C(=O)[C@@H]1C(=O)O[C@@]2(C)[C@H]1Cc1c(OC(C)=O)c(OC(C)=O)c(C(N)=O)c(OC(C)=O)c1OC(C)=O [Compound I-4, 3-(((1S,4R,10S)-6-acetoxy-1-methyl-3,5-dioxo-1,3,4,5-tetrahydro-1,4-methanobenzo[c]oxepin-10-yl)methyl)-6-carbamoyl benzene-1,2,4,5-tetraryl tetraacetate] |  | stronger protective actions | 
6 | C[C@@]12OC(=O)[C@@H](C(=O)c3c(OC(=O)c4ccccc4)cccc31)[C@@H]2Cc1c(OC(=O)c2ccccc2)c(OC(=O)c2ccccc2)c(C(N)=O)c(OC(=O)c2ccccc2)c1OC(=O)c1ccccc1 [Compound I-6, 3-(((1S,4R,10S)-6-(benzoyloxy)-1-methyl-3,5-dioxo-1,3,4,5-tetrahydro-1,4-methanobenzo[c]oxepin-10-yl)methyl)-6-carbamoyl benzene-1,2,4,5-tetraryl tetrabenzoate)] |  | stronger protective actions | 
7 | C[C@@]12OC(=O)[C@@H](C(=O)c3c(O)cccc31)[C@@H]2Cc1c(O)c(O)c(C(N)=O)c(O)c1O [Compound I-2, 2,3,5,6-tetrahydroxy-4-(((1S,4R,10S)-6-hydroxy-1-methyl-3,5-dioxo-1,3,4,5-tetrahydro-1,4-methanobenzo[c]oxepin-10-yl)methyl)benzamide] | 2.92 |  | 
8 | C[C@@]12OC(=O)[C@@H](C(=O)c3c(O)cccc31)[C@@H]2CC1=C(O)C(=O)C(C(N)=O)=C(O)C1=O [Compound I-1, 2,5-dihydroxy-4-(((1S,4R,10S)-6-hydroxy-1-methyl-3,5-dioxo-1,3,4,5-tetrahydro-1,4-methanobenzo[c]oxepin-10-yl)methyl)-3,6-dioxocyclohexa-1,4-dienocarboxamide] | 2.96 | protected PC12 cells, to no small extent | concentration needed to inhibit mPTP-opening compared with cyclosporine A (FIG. 2) ([1]; dose response of CRC/CRC(DMSO), FIG. 2): at a lower concentration than cyclosporine A; deaths of animals during the test period [3]: not seen; average brain injury rate, lower than the control group ([3]; one day after cerebral ischemia, total brain injury rate P<0.05, cerebral cortex injury rate P<0.01): about 25%
9 | C[C@@]12OC(=O)[C@@H](C(=O)c3c(O)ccc(Cl)c31)[C@@H]2Cc1c(O)c(O)c(C(N)=O)c(O)c1O [Compound Ia-2, 4-(((1S,4R,10S)-9-chloro-6-hydroxy-1-methyl-3,5-dioxo-1,3,4,5-tetrahydro-1,4-methanobenzo[c]oxepin-10-yl)methyl)-2,3,5,6-tetrahydroxybenzamide] | 1.50 |  | 
10 | C[C@@]12OC(=O)[C@@H](C(=O)c3c(O)cccc31)[C@@H]2CC1=C(O)C(=O)C(C#N)=C(O)C1=O [Compound Ia-4, 2,5-dihydroxy-4-(((1S,4R,10S)-6-hydroxy-1-methyl-3,5-dioxo-1,3,4,5-tetrahydro-1,4-methanobenzo[c]oxepin-10-yl)methyl)-3,6-dioxocyclohexa-1,4-dienocarbonitrile] | 1.59 |  | 
